# Where a name gives a salt, the structure may show the parent alone. Read-outs that look alike come from different tables or passages of the source.
# Assays:
# human OX2 receptor = target: T1, human OX2 receptor (Homo sapiens, UniProt O43614); assay: Measurement of orexin receptor antagonistic activity (calcium fluorescence, FLIPRtetra); type: cell-based; details: CHO, read-out: Human Orexin2 receptor inhibition (at 10 μM)
# T1 construct: expressed in transfected cells; host or cells: CHO cells
# T1 sequence (O43614 1-444): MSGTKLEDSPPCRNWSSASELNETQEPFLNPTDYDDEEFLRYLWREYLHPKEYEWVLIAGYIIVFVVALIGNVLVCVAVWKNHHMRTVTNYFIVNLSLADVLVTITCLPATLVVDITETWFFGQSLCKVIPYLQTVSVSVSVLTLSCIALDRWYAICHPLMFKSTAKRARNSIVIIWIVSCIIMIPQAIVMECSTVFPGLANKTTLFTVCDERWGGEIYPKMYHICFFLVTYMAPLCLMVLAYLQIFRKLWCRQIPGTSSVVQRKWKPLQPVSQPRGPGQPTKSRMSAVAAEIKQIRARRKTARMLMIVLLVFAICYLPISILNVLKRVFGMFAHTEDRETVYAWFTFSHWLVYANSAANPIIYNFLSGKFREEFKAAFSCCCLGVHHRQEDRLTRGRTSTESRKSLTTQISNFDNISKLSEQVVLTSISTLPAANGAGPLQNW
# Procedure, shortened: (§1)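 CHO cells expressing human OX1 or OX2 receptor, cultured one day. Compound in HBSS/20 mM HEPES/0.1% BSA added, then orexin-A at 1 nM final (OX1) or 0.3 nM final (OX2); calcium fluorescence by FLIPRtetra every 1 s for 2 min.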
# human OX1 receptor = target: T2, human OX1 receptor (Homo sapiens, UniProt O43613); assay: as above; type: cell-based; details: CHO, read-out: Human Orexin1 receptor inhibition (at 10 μM)
# T2 construct: expressed in transfected cells; host or cells: CHO cells
# T2 sequence (O43613 1-425): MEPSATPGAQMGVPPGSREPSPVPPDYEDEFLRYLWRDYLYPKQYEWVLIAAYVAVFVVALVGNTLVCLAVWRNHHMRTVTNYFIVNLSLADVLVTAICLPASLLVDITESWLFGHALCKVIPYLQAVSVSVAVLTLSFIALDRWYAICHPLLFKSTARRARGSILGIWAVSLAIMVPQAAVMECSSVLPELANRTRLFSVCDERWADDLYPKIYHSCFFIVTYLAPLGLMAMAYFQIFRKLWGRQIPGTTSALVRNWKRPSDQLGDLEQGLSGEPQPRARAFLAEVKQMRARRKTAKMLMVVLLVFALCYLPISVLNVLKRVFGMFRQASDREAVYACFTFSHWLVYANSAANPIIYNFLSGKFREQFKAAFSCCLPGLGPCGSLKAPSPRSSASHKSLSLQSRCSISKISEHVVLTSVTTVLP
# Procedure, shortened: as §1
# [1] = 10 μM test compound, CHO cells expressing human OX2 receptor, OX-A 0.3 nM
# [2] = 10 μM test compound, CHO cells expressing human OX1 receptor, OX-A 1 nM
inhibition at 10 µM (human OX2 receptor; [1]),inhibition at 10 µM (human OX1 receptor; [2]),Compound,inhibition at 10 µM (human OX2 receptor),inhibition at 10 µM (human OX1 receptor)
–,–,"Cc1ccc(-n2nccn2)c(C(=O)N2CCN(c3cncc(Cl)c3)OC[C@H]2C)c1 [Example 133, ((6R)-2-(5-chloropyridin-3-yl)-6-methyl-1,2,5-oxadiazepan-5-yl) (5-methyl-2-(2H-1,2,3-triazol-2-yl)phenyl)methanone]",70%,11%
–,–,"Cc1ccc(-n2nccn2)c(C(=O)N2CCN(c3ccc(F)c(Cl)c3)OC[C@H]2C)c1 [Example 134, ((6R)-2-(3-chloro-4-fluorophenyl)-6-methyl-1,2,5-oxadiazepan-5-yl) (5-methyl-2-(2H-1,2,3-triazol-2-yl)phenyl)methanone]",80%,92%
–,–,"Cc1ccc(-n2nccn2)c(C(=O)N2CCN(c3ccc(F)cc3)OC[C@H]2C)c1 [Example 135, ((6R)-2-(4-fluorophenyl)-6-methyl-1,2,5-oxadiazepan-5-yl) (5-methyl-2-(2H-1,2,3-triazol-2-yl)phenyl)methanone]",88%,15%
95%,36%,"Cc1ccc(-n2nccn2)c(C(=O)N2CCN(c3cc(C#N)ccn3)OC[C@H]2C)c1 [Example 136, 2-((6R)-6-methyl-5-(5-methyl-2-(2H-1,2,3-triazol-2-yl)benzoyl)-1,2,5-oxadiazepan-2-yl)isonicotinonitrile]",–,–
–,–,"COc1ccnc(N2CCN(C(=O)c3cc(C)ccc3-n3nccn3)[C@H](C)CO2)c1 [Example 137, ((6R)-2-(4-methoxypyridin-2-yl)-6-methyl-1,2,5-oxadiazepan-5-yl) (5-methyl-2-(2H-1,2,3-triazol-2-yl)phenyl)methanone]",100%,93%
–,–,"Cc1ccc(-n2nccn2)c(C(=O)N2CCN(c3cccc(-n4cccn4)n3)OC[C@H]2C)c1 [Example 138, ((6R)-6-methyl-2-(6-(1H-pyrazol-1-yl)pyridin-2-yl)-1,2,5-oxadiazepan-5-yl) (5-methyl-2-(2H-1,2,3-triazol-2-yl)phenyl)methanone]",95%,96%
–,–,"Cc1ccc(-n2nccn2)c(C(=O)N2CCN(c3cc(C(F)F)ccn3)OC[C@H]2C)c1 [Example 139, ((6R)-2-(4-(difluoromethyl)pyridin-2-yl)-6-methyl-1,2,5-oxadiazepan-5-yl) (5-methyl-2-(2H-1,2,3-triazol-2-yl)phenyl)methanone]",98%,54%
–,–,"Cc1ccc(-n2nccn2)c(C(=O)N2CCN(c3cccc(C#N)c3)OC[C@H]2C)c1 [Example 140, 3-((6R)-6-methyl-5-(5-methyl-2-(2H-1,2,3-triazol-2-yl)benzoyl)-1,2,5-oxadiazepan-2-yl)benzonitrile]",88%,21%
–,–,"Cc1ccc(N2CCN(C(=O)c3cc(C)ccc3-n3nccn3)[C@H](C)CO2)nc1 [Example 141, ((6R)-6-methyl-2-(5-methylpyridin-2-yl)-1,2,5-oxadiazepan-5-yl) (5-methyl-2-(2H-1,2,3-triazol-2-yl)phenyl)methanone]",99%,71%
–,–,"Cc1cc(C)nc(N2CCN(C(=O)c3cc(C)ccc3-n3nccn3)[C@H](C)CO2)c1 [Example 142, ((6R)-2-(4,6-dimethylpyridin-2-yl)-6-methyl-1,2,5-oxadiazepan-5-yl) (5-methyl-2-(2H-1,2,3-triazol-2-yl)phenyl)methanone]",97%,99%
–,–,"Cc1ccc(-n2nccn2)c(C(=O)N2CCN(c3cc(C)nc(C)c3)OC[C@H]2C)c1 [Example 143, ((6R)-2-(2,6-dimethylpyridin-4-yl)-6-methyl-1,2,5-oxadiazepan-5-yl) (5-methyl-2-(2H-1,2,3-triazol-2-yl)phenyl)methanone]",44%,1%
–,–,"Cc1ccc(-n2nccn2)c(C(=O)N2CCN(c3ccnc(C)c3)OC[C@H]2C)c1 [Example 144, ((6R)-6-methyl-2-(2-methylpyridin-4-yl)-1,2,5-oxadiazepan-5-yl) (5-methyl-2-(2H-1,2,3-triazol-2-yl)phenyl)methanone]",12%,14%
–,–,"Cc1ccc(-n2nccn2)c(C(=O)N2CCN(c3ncccc3C)OC[C@H]2C)c1 [Example 145, ((6R)-6-methyl-2-(3-methylpyridin-2-yl)-1,2,5-oxadiazepan-5-yl) (5-methyl-2-(2H-1,2,3-triazol-2-yl)phenyl)methanone]",82%,25%
–,–,"Cc1ccc(-n2nccn2)c(C(=O)N2CCN(c3ccnc(C(F)(F)F)c3)OC[C@H]2C)c1 [Example 146, (5-methyl-2-(2H-1,2,3-triazol-2-yl)phenyl) ((6R)-6-methyl-2-(2-(trifluoromethyl)pyridin-4-yl)-1,2,5-oxadiazepan-5-yl)methanone]",88%,66%
101%,60%,"Cc1cc(C)nc(N2CCN(C(=O)c3ccccc3-n3nccn3)[C@H](C)CO2)n1 [Example 147, ((6R)-2-(4,6-dimethylpyrimidin-2-yl)-6-methyl-1,2,5-oxadiazepan-5-yl) (2-(2H-1,2,3-triazol-2-yl)phenyl)methanone]",–,–
100%,53%,"Cc1cc(N2CCN(C(=O)c3ccccc3-n3nccn3)[C@H](C)CO2)nc(C)n1 [Example 148, ((6R)-2-(2,6-dimethylpyrimidin-4-yl)-6-methyl-1,2,5-oxadiazepan-5-yl) (2-(2H-1,2,3-triazol-2-yl)phenyl)methanone]",–,–
-6%,3%,"C[C@@H]1CON(c2ncc(F)c(O)n2)CCN1C(=O)c1ccccc1-n1nccn1 [Example 149, ((6R)-2-(5-fluoro-4-hydroxypyrimidin-2-yl)-6-methyl-1,2,5-oxadiazepan-5-yl) (2-(2H-1,2,3-triazol-2-yl)phenyl)methanone]",–,–
99%,58%,"C[C@@H]1CON(c2cc(C3CC3)ncn2)CCN1C(=O)c1ccccc1-n1nccn1 [Example 150, ((6R)-2-(6-cyclopropylpyrimidin-4-yl)-6-methyl-1,2,5-oxadiazepan-5-yl) (2-(2H-1,2,3-triazol-2-yl)phenyl)methanone]",–,–
98%,81%,"CCc1ccnc(N2CCN(C(=O)c3ccccc3-n3nccn3)[C@H](C)CO2)n1 [Example 151, ((6R)-2-(4-ethylpyrimidin-2-yl)-6-methyl-1,2,5-oxadiazepan-5-yl) (2-(2H-1,2,3-triazol-2-yl)phenyl)methanone]",–,–
99%,82%,"Cc1cc(C#N)nc(N2CCN(C(=O)c3ccccc3-n3nccn3)[C@H](C)CO2)n1 [Example 152, 6-methyl-2-((6R)-6-methyl-5-(2-(2H-1,2,3-triazol-2-yl)benzoyl)-1,2,5-oxadiazepan-2-yl)pyrimidine-4-carbonitrile]",–,–
99%,94%,"COc1cc(N2CCN(C(=O)c3ccccc3-n3nccn3)[C@H](C)CO2)nc(OC)n1 [Example 153, ((6R)-2-(2,6-dimethoxypyrimidin-4-yl)-6-methyl-1,2,5-oxadiazepan-5-yl)(2-(2H-1,2,3-triazol-2-yl)phenyl)methanone]",–,–
91%,97%,"Cc1cc(N2CCN(C(=O)c3ccccc3-n3nccn3)[C@H](C)CO2)nc(C(C)(C)C)n1 [Example 154, ((6R)-2-(2-tert-butyl-6-methylpyrimidin-4-yl)-6-methyl-1,2,5-oxadiazepan-5-yl)(2-(2H-1,2,3-triazol-2-yl)phenyl)methanone]",–,–
103%,100%,"Cc1cc(N2CCN(C(=O)c3ccccc3-n3nccn3)[C@H](C)CO2)nc(C2(C)CC2)n1 [Example 155, ((6R)-6-methyl-2-(6-methyl-2-(1-methylcyclopropyl)pyrimidin-4-yl-1,2,5-oxadiazepan-5-yl)(2-(2H-1,2,3-triazol-2-yl)phenyl)methanone hydrochloride]",–,–
19%,18%,"Cc1ccc(C#N)c(N2CCN(C(=O)c3ccccc3-n3nccn3)[C@H](C)CO2)n1 [Example 156, 6-methyl-2-((6R)-6-methyl-5-(2-(2H-1,2,3-triazol-2-yl)benzoyl)-1,2,5-oxadiazepan-2-yl)nicotinonitrile]",–,–
